From ChEMBL document CHEMBL1909046, “DrugMatrix in vitro pharmacology data”

Columns and labels:
Cannabinoid receptor 1 = Cannabinoid receptor 1 (Homo sapiens, UniProt P21554); type: cell membranes, Membrane; details: chem-1; note: in other assays of this panel Not Active means under 50% inhibition at 10 µM
[1] = DRUGMATRIX: beta-Lactamase enzyme inhibition (substrate: Nitrocefin); design: species or system Bacillus cereus; details: Not Active = under 50% inhibition at 10 µM
[2] = target: 5-hydroxytryptamine receptor 2B (Homo sapiens, UniProt P41595); type: cell membranes, CHO-K1, Membrane; details: cho-k1; note: in other assays of this panel Not Active means under 50% inhibition at 10 µM
Vasopressin V1a receptor = Vasopressin V1a receptor (Homo sapiens, UniProt P37288); type: cell membranes, Membrane; details: hek293; note: in other assays of this panel Not Active means under 50% inhibition at 10 µM
[3] = target: T1, Muscarinic acetylcholine receptor M5 (Homo sapiens, UniProt P08912); type: cell membranes, Membrane; details: cho-k1; note: in other assays of this panel Not Active means under 50% inhibition at 10 µM
T1 sequence (P08912 whole entry): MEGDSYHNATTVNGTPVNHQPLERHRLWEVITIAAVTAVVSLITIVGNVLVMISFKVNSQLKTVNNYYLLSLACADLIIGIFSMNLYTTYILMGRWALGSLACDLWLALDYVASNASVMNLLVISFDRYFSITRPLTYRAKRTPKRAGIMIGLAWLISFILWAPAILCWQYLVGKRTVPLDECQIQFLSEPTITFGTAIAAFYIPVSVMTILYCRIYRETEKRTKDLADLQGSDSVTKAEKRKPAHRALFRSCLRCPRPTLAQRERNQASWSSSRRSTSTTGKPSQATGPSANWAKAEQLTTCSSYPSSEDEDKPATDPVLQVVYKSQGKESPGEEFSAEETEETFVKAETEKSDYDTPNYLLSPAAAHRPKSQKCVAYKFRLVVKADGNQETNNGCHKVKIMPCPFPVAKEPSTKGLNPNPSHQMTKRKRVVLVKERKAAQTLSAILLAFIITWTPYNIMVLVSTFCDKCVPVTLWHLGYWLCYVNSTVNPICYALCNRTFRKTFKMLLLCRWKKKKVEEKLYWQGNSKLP

Cytochrome P450 2C9 = Cytochrome P450 2C9 (Homo sapiens, UniProt P11712); details: bti-tn-5b1-4; note: in other assays of this panel Not Active means under 50% inhibition at 10 µM
[4] = target: Delta-type opioid receptor (Homo sapiens, UniProt P41143); type: cell membranes, HEK293, Membrane; details: hek293; note: in other assays of this panel Not Active means under 50% inhibition at 10 µM
[5] = DRUGMATRIX: GABAA, Chloride Channel, TBOB radioligand binding (ligand: [3H] TBOB); type: cell membranes, Rattus norvegicus, Wistar, Cerebral cortex, Membrane; details: Not Active = under 50% inhibition at 10 µM

Chain of Vasopressin V1a receptor (P37288 whole entry): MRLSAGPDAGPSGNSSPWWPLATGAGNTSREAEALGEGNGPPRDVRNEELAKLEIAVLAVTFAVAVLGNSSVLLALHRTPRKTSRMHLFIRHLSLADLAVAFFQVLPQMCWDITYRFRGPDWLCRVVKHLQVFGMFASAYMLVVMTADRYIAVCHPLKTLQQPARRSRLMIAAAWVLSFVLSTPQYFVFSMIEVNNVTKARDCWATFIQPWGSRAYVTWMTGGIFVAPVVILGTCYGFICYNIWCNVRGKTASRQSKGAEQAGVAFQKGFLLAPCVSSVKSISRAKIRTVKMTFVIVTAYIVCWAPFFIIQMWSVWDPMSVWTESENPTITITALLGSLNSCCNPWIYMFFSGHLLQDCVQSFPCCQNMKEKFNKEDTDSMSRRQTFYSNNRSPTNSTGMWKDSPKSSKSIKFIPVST
Chain of Delta-type opioid receptor (P41143 whole entry): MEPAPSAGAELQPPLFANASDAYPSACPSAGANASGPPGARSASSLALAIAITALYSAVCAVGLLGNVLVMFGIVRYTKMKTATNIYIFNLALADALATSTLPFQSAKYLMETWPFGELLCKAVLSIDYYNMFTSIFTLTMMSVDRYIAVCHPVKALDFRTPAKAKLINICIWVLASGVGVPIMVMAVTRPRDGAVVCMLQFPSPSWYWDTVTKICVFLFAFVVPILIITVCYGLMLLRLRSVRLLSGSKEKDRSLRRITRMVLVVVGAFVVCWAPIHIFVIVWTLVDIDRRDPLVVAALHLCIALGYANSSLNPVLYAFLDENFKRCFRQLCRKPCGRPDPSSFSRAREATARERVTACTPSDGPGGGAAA
Chain of Cytochrome P450 2C9 (P11712 whole entry): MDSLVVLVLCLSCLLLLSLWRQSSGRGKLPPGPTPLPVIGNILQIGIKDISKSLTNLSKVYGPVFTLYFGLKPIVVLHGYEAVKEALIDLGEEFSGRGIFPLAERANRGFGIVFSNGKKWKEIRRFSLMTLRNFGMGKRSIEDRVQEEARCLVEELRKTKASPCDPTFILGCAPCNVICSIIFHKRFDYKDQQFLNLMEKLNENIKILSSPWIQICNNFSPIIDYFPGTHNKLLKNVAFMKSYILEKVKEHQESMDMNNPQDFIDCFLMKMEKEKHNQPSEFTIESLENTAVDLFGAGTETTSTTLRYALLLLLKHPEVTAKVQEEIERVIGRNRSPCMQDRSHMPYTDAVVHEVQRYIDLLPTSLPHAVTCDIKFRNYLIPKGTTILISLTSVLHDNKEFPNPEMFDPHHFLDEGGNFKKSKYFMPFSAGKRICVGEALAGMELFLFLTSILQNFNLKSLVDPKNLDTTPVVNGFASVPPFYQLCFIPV
Chain of 5-hydroxytryptamine receptor 2B (P41595 whole entry): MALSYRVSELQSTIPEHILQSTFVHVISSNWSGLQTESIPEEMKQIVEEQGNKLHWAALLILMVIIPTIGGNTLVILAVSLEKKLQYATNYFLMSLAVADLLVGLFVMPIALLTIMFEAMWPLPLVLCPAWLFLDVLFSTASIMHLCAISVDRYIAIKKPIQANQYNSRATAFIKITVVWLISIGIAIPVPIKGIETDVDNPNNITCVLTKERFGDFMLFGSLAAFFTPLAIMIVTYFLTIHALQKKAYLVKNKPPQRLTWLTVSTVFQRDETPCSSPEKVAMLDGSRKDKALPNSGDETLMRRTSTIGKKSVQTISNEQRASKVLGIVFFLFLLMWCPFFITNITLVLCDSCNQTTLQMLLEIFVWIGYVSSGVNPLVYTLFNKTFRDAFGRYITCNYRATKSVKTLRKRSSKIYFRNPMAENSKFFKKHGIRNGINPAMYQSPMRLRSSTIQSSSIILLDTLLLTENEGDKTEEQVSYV
Chain of Cannabinoid receptor 1 (P21554 whole entry): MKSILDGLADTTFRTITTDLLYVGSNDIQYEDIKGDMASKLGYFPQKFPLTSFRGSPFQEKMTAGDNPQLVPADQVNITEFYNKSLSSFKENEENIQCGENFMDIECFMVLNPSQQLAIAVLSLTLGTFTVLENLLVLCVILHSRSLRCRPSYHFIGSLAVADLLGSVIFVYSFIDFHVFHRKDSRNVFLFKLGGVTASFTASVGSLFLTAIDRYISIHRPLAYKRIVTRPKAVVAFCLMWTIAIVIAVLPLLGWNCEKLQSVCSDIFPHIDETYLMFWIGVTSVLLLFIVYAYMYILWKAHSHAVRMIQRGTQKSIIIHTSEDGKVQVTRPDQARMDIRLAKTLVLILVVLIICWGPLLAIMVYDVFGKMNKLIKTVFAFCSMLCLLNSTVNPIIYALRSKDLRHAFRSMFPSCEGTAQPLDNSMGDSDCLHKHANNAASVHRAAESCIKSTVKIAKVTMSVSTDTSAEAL

COc1ccc(Cc2nccc3cc(OC)c(OC)cc23)cc1OC [PAPAVERINE]
Not Active: IC50 (Cannabinoid receptor 1) | IC50 [1] | Ki [1] | IC50 [2] | IC50 (Vasopressin V1a receptor) | IC50 [3] | IC50 (Cytochrome P450 2C9) | Ki (Cytochrome P450 2C9) | IC50 [4] | IC50 [5] | Ki [5]

CCCCC1C(=O)N(c2ccccc2)N(c2ccccc2)C1=O [PHENYLBUTAZONE]
Not Active: IC50 (Cannabinoid receptor 1) | IC50 [1] | Ki [1] | IC50 [2] | IC50 (Vasopressin V1a receptor) | IC50 [3] | IC50 (Cytochrome P450 2C9) | Ki (Cytochrome P450 2C9) | IC50 [4] | IC50 [5] | Ki [5]

Cc1cccc(Nc2cc(Cl)nc(SCC(=O)O)n2)c1C [PIRINIXIC ACID]
Not Active: IC50 (Cannabinoid receptor 1) | IC50 [1] | Ki [1] | IC50 [2] | IC50 (Vasopressin V1a receptor) | IC50 [3] | IC50 (Cytochrome P450 2C9) | Ki (Cytochrome P450 2C9) | IC50 [4] | IC50 [5] | Ki [5]

CC[C@H](C)C(=O)O[C@H]1C[C@H](O)C=C2C=C[C@H](C)[C@H](CC[C@@H](O)C[C@@H](O)CC(=O)O)[C@H]21 [PRAVASTATIN]
Not Active: IC50 (Cannabinoid receptor 1) | IC50 [1] | Ki [1] | IC50 [2] | IC50 (Vasopressin V1a receptor) | IC50 [3] | IC50 (Cytochrome P450 2C9) | Ki (Cytochrome P450 2C9) | IC50 [4] | IC50 [5] | Ki [5]

CC(C)(Sc1cc(C(C)(C)C)c(O)c(C(C)(C)C)c1)Sc1cc(C(C)(C)C)c(O)c(C(C)(C)C)c1 [PROBUCOL]
Not Active: IC50 (Cannabinoid receptor 1) | IC50 [1] | Ki [1] | IC50 [2] | IC50 (Vasopressin V1a receptor) | IC50 [3] | IC50 (Cytochrome P450 2C9) | Ki (Cytochrome P450 2C9) | IC50 [4] | IC50 [5] | Ki [5]

COBALT(II) ACETYLACETONATE
Not Active: IC50 (Cannabinoid receptor 1) | Ki (Cannabinoid receptor 1) | IC50 [1] | Ki [1] | IC50 [2] | Ki [2] | IC50 (Vasopressin V1a receptor) | Ki (Vasopressin V1a receptor) | IC50 [3] | Ki [3] | IC50 (Cytochrome P450 2C9) | Ki (Cytochrome P450 2C9) | IC50 [4] | Ki [4] | IC50 [5] | Ki [5]

INSULIN HUMAN
Not Active: IC50 (Cannabinoid receptor 1) | Ki (Cannabinoid receptor 1) | IC50 [1] | Ki [1] | IC50 [2] | Ki [2] | IC50 (Vasopressin V1a receptor) | Ki (Vasopressin V1a receptor) | IC50 [3] | Ki [3] | IC50 (Cytochrome P450 2C9) | Ki (Cytochrome P450 2C9) | IC50 [4] | Ki [4] | IC50 [5] | Ki [5]

POLYVINYL ALCOHOL
Not Active: IC50 (Cannabinoid receptor 1) | Ki (Cannabinoid receptor 1) | IC50 [1] | Ki [1] | IC50 [2] | Ki [2] | IC50 (Vasopressin V1a receptor) | Ki (Vasopressin V1a receptor) | IC50 [3] | Ki [3] | IC50 (Cytochrome P450 2C9) | Ki (Cytochrome P450 2C9) | IC50 [4] | Ki [4] | IC50 [5] | Ki [5]
